{
  "source": "patent US6288073A",
  "about": "“Acronycine derivatives, preparation method and pharmaceutical compositions” (Adir et Compagnie, priority 1997, dated 2001)",
  "key": {"[1]": {"tested_on": "Human Colon Carcinoma HT29", "assay": "Anti-tumour activity on human colon carcinoma HT29 grafted onto nude mice", "type": "in vivo, nude mice (human HT29 xenograft)", "description": "Line HT29 was supplied by the ATCC (American Type Culture Collection, Rockville, USA). The tumour cells were inoculated into female nude Swiss mice (10^7 cells per animal) by the subcutaneous route. The tumours were then removed and cut into fragments, which were grafted onto nude mice by the subcutaneous route. Once the tumour volume had reached from 50 to 100 mm^3, the mice were distributed into experimental groups containing 8 animals (control group) or 6 animals (treated groups) (day 0). The products were administered by the i.v. route once per week for 3 weeks. The tumours were measured twice per week and the tumour volumes were calculated according to the formula: volume (mm^3)=length (mm)×width^2 […]/2 [formula]\nwith V0 and Vt being the initial volume and the volume at measurement time t, respectively."}, "[2]": {"tested_on": "Murine leukaemia L1210", "assay": "Cytotoxicity for L1210 cells in culture (Microculture Tetrazolium Assay)", "type": "cell-based", "conditions": "Mus musculus, exposure 48 hours (4 periods of cell doubling), viable cells by Microculture Tetrazolium Assay", "method": "Murine leukaemia L1210 was used in vitro. The cells are cultured in RPMI 1640 complete culture medium containing 10% foetal calf serum, 2 mM giutamine, 50 units/ml of penicillin, 50 μg/ml of streptomycin and 10 mM Hepes, pH: 7.4. The cells are distributed on microplates and exposed to the cytotoxic compounds for 4 periods of cell doubling, i.e. 48 hours. The number of viable cells is then quantified by means of a colorimetric assay, the Microculture Tetrazolium Assay (J. Carmichael et al., Cancer Res., 47, 936-942, (1987)). The results are expressed as IC50, the concentration of cytotoxic agent which inhibits the proliferation of the treated cells by 50%."}, "[3]": {"tested_on": "Line P 388 (murine leukaemia)", "assay": "Anti-tumour activity on line P 388 in vivo", "parameters": "species or system mice", "conditions": "for % T/C: P 388 inoculated i.p. into female B6D2F1 mice, product i.p. on day 1 at the optimum dose; for Anti-tumour activity on line P 388 (in words): P 388 model in B6D2F1 mice, i.p., d1", "method": "Line P 388 (murine leukaemia) was supplied by the National Cancer Institute (Frederick, USA). The tumour cells (10^6 cells) were inoculated on day 0 into the peritoneal cavity of female B6D2F1 mice (Iffa Credo, France). Six mice weighing from 18 to 20 g were used for each experimental group. The products were administered by the intraperitoneal route on day 1.\nThe anti-tumour activity is expressed as % TIC: [formula]"}},
  "data": [
    {"smiles": "COc1cc2c(c3c1c(=O)c1cc4ccccc4cc1n3C)[C@@H](OC(C)=O)[C@@H](OC(C)=O)C(C)(C)O2", "note": "(relative stereo) [Example 5, (±)-cis-1,2-Diacetoxy-4-methoxy-3,3,14-trimethyl-2,3,7,14-tetrahydro-1H-benzo[b]pyrano[3,2-h]acridin-7-one]", "values": [
      {"measurement": "Anti-tumour activity on line HT29 (in words)", "setting": "[1]; HT29 model in nude mice, i.v.", "value": "very active"},
      {"measurement": "% T/C on day 32", "setting": "[1]; HT29 s.c. grafts in nude Swiss mice, i.v. d 0, 7, 14 at optimum dose, tumour volume", "value": 17, "unit": "%"},
      {"measurement": "inhibition of growth of the HT29 tumour", "setting": "[1]; on day 32, HT29 s.c. grafts in nude mice, i.v. once per week for 3 weeks", "value": 83, "unit": "%"}
    ]},
    {"smiles": "COc1cc2c(c3c1c(=O)c1cc4ccccc4cc1n3C)[C@H]1OC(=O)O[C@H]1C(C)(C)O2", "note": "(relative stereo) [Example 7, cis-7-Methoxy-4,4,15-trimethyl-3a,8,15,15c-tetrahydro-4H-benzo[b][1,3]dioxolo[4',5':4,5]pyrano[3,2-h]acridine-2,8-dione]", "values": [
      {"measurement": "IC50", "setting": "[2]", "value": 0.023, "unit": "µM"},
      {"measurement": "% T/C", "setting": "[3]", "value": 327, "unit": "%"},
      {"measurement": "Anti-tumour activity on line P 388 (in words)", "setting": "[3]", "value": "very active"}
    ]},
    {"smiles": "COc1cc2c(c3c1c(=O)c1ccccc1n3C)C=CC(C)(C)O2", "note": "[Acronycine]", "values": [
      {"measurement": "IC50", "setting": "[2]", "value": 27, "unit": "µM"},
      {"measurement": "% T/C", "setting": "[3]", "value": 125, "unit": "%"},
      {"measurement": "Anti-tumour activity on line P 388 (in words)", "setting": "[3]", "value": "only marginally active"}
    ]}
  ]
}
